Reference: the NIST ThermoML archive (doi:10.1016/j.jct.2015.07.035)
± gives the expanded uncertainty stated by the source.

Assays:
[1] = refractive index (Na D-line) (dimensionless); conditions: 101.33 kPa, Liquid, Standard Abbe refractometry
[2] = 101.33 kPa, Liquid, Vibrating tube method

Row | refractive index ([1]; 298.2 K) | mass density ([2]; 298.2 K) [kg/m3] | refractive index ([1]; 303.2 K) | mass density ([2]; 303.2 K) [kg/m3] | SMILES
1 | 1.56019 ± 0.00042 | 1039.32 ± 1.1 |  |  | c1ccc(COCc2ccccc2)cc1 [dibenzyl ether]
2 | 1.43554 ± 0.00042 | 826.41 ± 1 |  |  | CCCCCCCCCCO [decan-1-ol]
3 |  |  | 1.46238 ± 0.00042 | 941.42 ± 1.1 | OC1CCCCC1 [cyclohexanol]

Further lines, the molecule ahead of its results:

Row | SMILES | refractive index ([1]; 298.2 K) | mass density ([2]; 298.2 K) [kg/m3] | refractive index ([1]; 303.2 K) | mass density ([2]; 303.2 K) [kg/m3]
4 | CC(O)c1ccccc1 (configuration not stated) [1-phenylethanol] | 1.52467 ± 0.00042 | 1006.48 ± 1.1 |  | 
5 | CC(C)CC(=O)O [3-methylbutanoic acid] | 1.40124 ± 0.00042 | 921.34 ± 1.1 |  | 
6 | Clc1ccccc1 [chlorobenzene] | 1.52165 ± 0.00042 | 1101.08 ± 1.1 |  | 
